Results: patent US8124794B2, “Method for the asymmetric synthesis of beta-lactone compounds” (Sanford-Burnham Medical Research Institute, priority 2006, dated 2012)
Where two headings read alike, the source gives them in different places. Blank lines part the entries; values can stand above or below the compound they belong to.

Tests used:
[1] = target: T1, recombinant thioesterase domain of fatty acid synthase (FAS TE) (Homo sapiens, UniProt P49327); experiment: Fluorogenic assay (4-MUH substrate) for inhibition of recombinant FAS thioesterase domain; assay type: biochemical
T1 construct: Expression of the recombinant thioesterase domain of FAS was performed as described previously
From the text: The synthetic fluorogenic substrate, 4-methylumbelliferyl heptanoate (4-MUH), was purchased from Sigma (St. Louis, Mo.). […] Results are the average of triplicate time points.

[2] = system: hydrolase expressed at 28 kDa; experiment: FP-TAMRA labeling of serine hydrolases in mammary cell lysates; assay type: biochemical, human
Protocol: (§1) The serine hydrolase activity profiles of the prostate cell lines were measured using the fluorophosphonate probe fp-PEG-TAMRA using methods described previously (Liu et al., supra; Kidd et al., supra). Briefly, 40 μl of a 1 mg/ml solution of the soluble fractions of each cell lines were treated with 2 μM fp-PEG-TAMRA for one hour at ambient temperature. The labeling reactions were stopped by the addition of Laemmli buffer followed by boiling for 5 minutes. As a control for non-specific reaction of the probe, a duplicate sample was boiled for ten minutes prior to labeling with fp-PEG-TAMRA to denature all enzymatic activity. The labeled samples were resolved by 10% SDS-PAGE and visualized by scanning with a Hitachi flatbed scanner at 605 nm.
(§2) Ebelactone A and B stocks were made in DMSO. Orlistat was made in EtOH. Cell lysate were generated at 1 mg/ml as described above. Samples (40 μg) were incubated with inhibitors for twenty minutes prior to addition of fp-PEG-TAMRA. The final concentration of DMSO or EtOH in each reaction was 10%. The labeling reactions were stopped by the addition of Laemmli sample buffer and samples were resolved on 10% SDS-PAGE and visualized.
(§3) Labeling of serine hydrolases in the cell lysates with FP-TAMRA was challenged with each of the beta-lactones Inhibition experiments were performed under pre-steady state conditions, so that relative IC50 values could be compared. […] Tetrahydrolipstatin is selective for the hydrolase at 270 kDa that is expressed in breast cancer cell lines.

[3] = system: hydrolase migrating at 31 kDa; experiment: as above; assay type: biochemical, human
Protocol: as §1, §2, §3

[4] = system: cellular fatty acid synthesis; experiment: [14C]-acetate incorporation into fatty acids, prostate tumor cells; assay type: cell-based; conditions: level of orlistat inhibiting about 90% of activity-based labeling of FAS
Protocol: Studies were performed to determine the effect of orlistat on tumor cells. As a first step, we measured the ability to inhibit the activity of FAS in whole cells. […] . A concentration-dependent inhibition of labeling by FP-Bodipy was evident (FIG. 2; top panel), indicating enzyme inhibition. […] .
Inhibition of fatty acid synthesis by orlistat.

HUVEC = HUVEC proliferation by BrdU incorporation; assay type: cell-based, human; conditions: for IC50: Homo sapiens, HUVEC, read-out: concentration required for a half maximal effect on proliferation
Protocol: The effect of orlistat on HUVEC proliferation induced by several mitogenic stimuli was assessed by BrdU incorporation. Orlistat and mitogen were added simultaneously to serum-starved cells, and BrdU included during the period equivalent to the second round of the cell cycle after mitogen addition. Orlistat inhibited proliferation induced by complete endothelial medium (containing a undefined mixture of mitogens), by bFGF and by VEGF. […] Cell proliferation was measured by incorporation of BrdU. HUVEC were seeded in 96 well plates at a density of 2000 cells/well and cultured in Endothelial Growth medium (EGM; Clonetics, Walkerville, Md.) for 24 h at 37° C. Cells were serum-starved for further 24 h in Endothelial Basal Medium (EBM; Clonetics, Walkerville, Md.)+0.2% FCS. Medium was replaced with orlistat (40-0 uM) diluted in (A) EGM, (B) EBM+2% FCS+bFGF (5 ng/ml), (C) EBM+2% FCS+VEGF (20 ng/ml) or (D) EBM+0.2% FCS. Cells were incubated 48 h at 37 deg C., with BrdU present during the final 24 h. Medium was removed, the cell monolayers fixed, and BrdU incorporation measured by ELISA. Proliferation was expressed as a percentage of that measured in the absence of orlistat.

MDA-MB-435 cells = experiment: Apoptosis by DNA fragmentation ELISA; conditions: Homo sapiens, MDA-MB-435, read-out: half-maximal apoptotic response
normal HMECs = experiment: Apoptosis by DNA fragmentation ELISA
[5] = system: cellular fatty acid synthesis in MDA-MB-435 cells; experiment: [14C]-acetate incorporation into cellular fatty acids, MDA-MB-435 cells; conditions: MDA-MB-435, 100 μM
Protocol: Cells were seeded at density of 2.5×10^4 cells/well in 24-well plates. Prior to the addition of orlistat, the wells were washed twice with PBS. Serum-free RPMI containing 300 μg/ml BSA and insulin/transferrin/selenium supplement was added to the wells, with or without orlistat. The cells were incubated for two hours prior to the addition of 1 μCi of [^14C]-acetate to label newly synthesized fatty acids. After two hours, the labeling medium was removed and the cells were washed with PBS/EDTA and trypsinized The cells pellets were washed twice more with PBS and fatty acids were extracted by the addition of an equal mixture of chloroform-methanol for 30 minutes. The extracted material was dried under a stream of N2 gas and extracted further with water-saturated butanol. The butanol was removed by drying under a stream of N2 gas and labeled fatty acids were detected by scintillation counting.
MDA-MB-435 cells were fed [^14C]-acetate as a precursor, and treated with orlistat.

[6] = recombinant FAS TE, 4-MUH substrate, 30 min pre-incubation at 37 deg.C, read-out: apparent Ki

T1 sequence (P49327 2207-2511 limits assumed): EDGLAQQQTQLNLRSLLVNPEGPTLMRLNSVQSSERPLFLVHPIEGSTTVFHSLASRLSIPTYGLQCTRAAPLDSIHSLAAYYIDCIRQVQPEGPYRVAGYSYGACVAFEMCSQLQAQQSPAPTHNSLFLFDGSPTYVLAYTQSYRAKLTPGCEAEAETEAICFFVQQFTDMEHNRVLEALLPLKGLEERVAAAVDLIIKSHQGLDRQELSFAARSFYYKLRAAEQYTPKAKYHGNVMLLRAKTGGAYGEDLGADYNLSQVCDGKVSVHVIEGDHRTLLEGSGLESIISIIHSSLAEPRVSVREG

SMILES: CC[C@@H]1C(=O)OC1[C@@H](C)C/C(C)=C/[C@@H](C)C(=O)[C@@H](C)[C@H](O)[C@@H](C)CC (some centres unmarked) [ebelactone B]
inhibition of labeling of 28 kDa hydrolase [2]: little effect
inhibition of labeling of 31 kDa hydrolase [3]: abolished labeling

SMILES: CCCCCCCCCCC[C@@H](C[C@@H]1OC(=O)[C@H]1CCCCCC)OC(=O)[C@H](CC(C)C)NC=O [Orlistat, tetrahydrolipstatin]
reduction of total cellular fatty acid synthesis [4]: approximately 70%
IC50 (HUVEC; VEGF): 1250 nM
IC50 (HUVEC; bFGF): 1000 nM
IC50 (HUVEC; complete medium): 4000 nM
concentration at which maximum inhibition of proliferation was achieved (HUVEC; complete medium, bFGF or VEGF): ≥ 10 µM
maximum inhibition of proliferation (HUVEC; stimulated with VEGF): ~80%
maximum inhibition of proliferation (HUVEC; stimulated with bFGF): ~90%
maximum inhibition of proliferation (HUVEC; stimulated with complete medium): ~90%
EC50 (MDA-MB-435 cells): ~4 µM
apoptotic response across a range of orlistat (normal HMECs): No effect
reduction of incorporation of [14C]-acetate into cellular fatty acids [5]: approximately 70%

SMILES: COC(=O)CC[C@H]1OC(=O)[C@H]1CC(=O)OC [3e]
Ki [1, 6]: > 100 µM

SMILES: CCCCC[C@@H]1OC(=O)[C@@H]1CCCC (stereo in doubt) [3a, (3R,4S)-3-butyl-4-pentyloxetan-2-one]
Ki [1, 6]: 23.1 ± 4.2 µM

SMILES: CC[C@H](C)[C@@H](O)[C@H](C)C(=O)[C@H](C)/C=C(\C)C[C@H](C)C1OC(=O)[C@H]1C (some centres unmarked) [ebelactone A]
inhibition of labeling of 28 kDa hydrolase [2]: potent inhibitor
inhibition of labeling of 31 kDa hydrolase [3]: far less effective

SMILES: O=C1O[C@H](CCc2ccccc2)[C@H]1Cc1ccccc1 [trans-3d]
Ki [1]: 3.3 ± 0.2 µM

SMILES: O=C1O/C(=C\CC2CCCCC2)[C@@H]1CC1CCCCC1 [2c]
Ki [1, 6]: > 100 µM

Continued by falling Ki [1, 6], values first:

Ki [1, 6]: 19.2 ± 0.36 µM
SMILES: CCCCC[C@@H]1OC(=O)[C@@]1(CCCC)Cc1ccccc1 [8b, (3S,4S)-3-benzyl-3-butyl-4-pentyloxetan-2-one]

Ki [1, 6]: 14.6 ± 4 µM
SMILES: CCCCC[C@@H]1OC(=O)[C@]1(C)CCCC [8a, (3R,4S)-3-butyl-3-methyl-4-pentyloxetan-2-one]

Ki [1, 6]: 13.5 ± 7.8 µM
SMILES: O=C1O[C@H](CCC2CCCC2)[C@@H]1CC1CCCC1 [3b]

Ki [1, 6]: 7.7 ± 0.43 µM
SMILES: O=C1O[C@H](CCC2CCCCC2)[C@@H]1CC1CCCCC1 [3c]

Ki [1, 6]: 5.04 ± 2.1 µM
SMILES: O=C1O/C(=C\Cc2ccccc2)[C@@H]1Cc1ccccc1 [2d]

Ki [1, 6]: 4.01 ± 1.9 µM
SMILES: CCCCC[C@H]1OC(=O)[C@@H]1CCCC [trans-3a, (3R,4R)-3-butyl-4-pentyloxetan-2-one]

Ki [1, 6]: 2.5 ± 0.47 µM
SMILES: O=C1O[C@H](CCc2ccccc2)[C@@H]1Cc1ccccc1 [3d]
